How the values were obtained:
[1] = tested on: immortalized mouse C2C12 myoblasts; experiment: Lipid species (ceramides) in C2C12 cells, LC-MS/MS; type: cell-based
Description: (§1) (A) Schematic representation of the de novo sphingolipid synthesis pathway. (B) Chemical structures of myriocin (MYR) and ALT-007. (C) Heatmap analysis comparing the effects of treatments with the indicated concentrations of MYR and ALT-007 on lipid species in C2C12 cells. N = 3 per group. Data are shown as log2 fold change. (D) Body weight curves of mice treated with ALT-007 or vehicle (4 mg/kg/d for 10 days, in the food). (E) Mean food consumption measurement throughout the treatment. (F) Plasma levels of aspartate transaminase (AST), (G) alanine transaminase (ALT) and (H) creatine kinase (CK) after 10 days of treatment with ALT-007 at 4 mg/kg/day. (I) Ceramide levels measured in the gastrocnemius muscle after 10 days of treatment. N = 8 per group. Quantitative data are expressed as median with min to max values. *P < 0.05, **P < 0.01, ***P < 0.001. […]
(§2) ESI source conditions were used as follows: dry gas temperature, 230 °C; nebulizer, 35 psi and flow rate of 14 L min^–1; sheath gas temperature, 400 °C and flow rate of 12 L min^–1; nozzle voltage, 500 V; and capillary voltage, 4000 V. Dynamic multiple reaction monitoring was used as the acquisition mode with a total cycle time of 500 ms. […] Raw LC–MS/MS data were processed applying Agilent Quantitative Analysis software (version B.07.00, MassHunter Agilent Technologies). […]

[2] = 10-day food admix tolerability in mice (body weight, food intake, plasma AST, ALT, CK); type: in vivo; settings: 10 days
Description: (A) Schematic representation of the de novo sphingolipid synthesis pathway. (B) Chemical structures of myriocin (MYR) and ALT-007. (C) Heatmap analysis comparing the effects of treatments with the indicated concentrations of MYR and ALT-007 on lipid species in C2C12 cells. N = 3 per group. Data are shown as log2 fold change. (D) Body weight curves of mice treated with ALT-007 or vehicle (4 mg/kg/d for 10 days, in the food). (E) Mean food consumption measurement throughout the treatment. (F) Plasma levels of aspartate transaminase (AST), (G) alanine transaminase (ALT) and (H) creatine kinase (CK) after 10 days of treatment with ALT-007 at 4 mg/kg/day. (I) Ceramide levels measured in the gastrocnemius muscle after 10 days of treatment. N = 8 per group. Quantitative data are expressed as median with min to max values. *P < 0.05, **P < 0.01, ***P < 0.001. ANOVA test was used for multiple comparison, and the Mann–Whitney U test when comparing 2 groups. All tests were 2 sided. Abbreviation: SPT, serine palmitoyltransferase; CK, creatine kinase; MYR, Myriocin; ns, nonsignificant.
Plasma parameters were assessed using samples diluted two times (at a 1:1 ratio of plasma to diluent) with the DimensionXpand Plus system from Siemens Healthcare Diagnostics. The biochemical tests were conducted in accordance with the manufacturer’s instructions for each specific parameter. These parameters included transaminase AST (DF41A), transaminase ALT (DF143) and creatine kinase (11097640), all provided by Siemens Healthcare.

[3] = tested on: ceramide levels in the gastrocnemius muscle; experiment: Ceramide levels in gastrocnemius muscle after 10 days of treatment; type: in vivo, mice; settings: 4 mg/kg/d in the food
Description: as §1, §2

Aged C57BL/6J mice = experiment: Lean mass (echoMRI) and muscle weight at sacrifice in aged mice; type: in vivo, C57BL/6JRj mice; settings: 1 mg/kg in the food
Description: At the first and last (week 20) after experiment onset (as indicated in Figure 2A), body composition analysis was conducted. Each mouse was placed for short in an Echo-MRI (magnetic resonance imaging) machine, specifically the 3-in-1 model from Echo Medical Systems. This procedure recorded lean mass, along with total body weight, with each measurement taking approximately 1 min per individual.
Prior to sacrifice, mice were fasted for 4 h in the morning. Animals were sacrificed between 1:30 and 4 p.m. Mice were anesthetized with isoflurane, followed by a complete blood draw from the vena cava and perfusion with cold phosphate-buffered saline. Immediately thereafter, various tissues including liver, kidney, spleen, heart, brain, gastrocnemius muscle and tibialis anterior muscle were harvested, weighted and promptly flash-frozen in liquid nitrogen.

N2 wild-type C. elegans = experiment: Lifespan measurements in C. elegans; type: in vivo, Caenorhabditis elegans
Description: Lifespan assays were conducted at 20 °C unless otherwise noted. Synchronous populations were generated by hypochlorite treatment of gravid adults to obtain tightly synchronized embryos, which were then allowed to develop into adulthood under defined conditions. 20–25 worms were placed on NGM plates containing 5-FU seeded with E. coli OP50 bacteria. ALT-007 at a final concentration of 5 μM was added to the top of the plates diluted in DMSO, and DMSO was used at the same concentration as a control. Each condition included at least 170 animals per experiment.
The day of egg collection was designated as t = 0. Animals were transferred to fresh plates every 3 days and examined daily for touch-provoked movement and pharyngeal pumping, until death. Worms that died due to internal hatching of eggs, extruded gonads, or desiccation from crawling off the plate were censored accordingly. Each survival assay was repeated at least twice, and figures show representative results.
Survival curves were generated using the Kaplan–Meier product-limit method. The log-rank (Mantel–Cox) test was used to assess differences in survival and calculate P values. Statistical analyses and lifespan values were determined using GraphPad Prism 10 software. Complete lifespan statistics are presented in Supporting Information Table 1.

[4] = 4 mg/kg/d in the food, vs DMSO control mice

## COc1cc(C(=O)N2CC[C@H](NC(=O)c3ccccc3OC(F)(F)F)c3c2cnn3C(C)C)cnc1OC [ALT-007]
[1]; C2C12 myoblasts, compared to Myriocin
  potency in lowering ceramide species: superior potency compared to Myriocin
[1]; concentration of 10 nM
  ceramide levels in C2C12 myoblasts: lower ceramide levels
[2]; [4]
  body weight: no differences
  food intake: no differences
[2]; 4 mg/kg/day
  hepatic toxicity by plasma transaminase (AST, ALT) levels: neither hepatic nor muscle toxicity was identified
  muscle toxicity by plasma creatine kinase (CK) levels: neither hepatic nor muscle toxicity was identified
[3]
  ceramide levels in the gastrocnemius muscle: effectively decreased ceramide levels with a stronger effect on very long-chain (VLC) species
Aged C57BL/6J mice; after 11 weeks
  lean mass measured by echoMRI: increased lean mass
Aged C57BL/6J mice; at sacrifice after 20 weeks
  muscle weight (gastrocnemius, tibialis anterior): increased muscle weight
N2 wild-type C. elegans; C. elegans, administration at the embryo stage
  toxicity for animal development: nontoxic for animal development
N2 wild-type C. elegans; N2 wild-type, 5 μM, 20 °C
  maximal lifespan: significantly increased
  median lifespan: significantly increased

— article PMC11729425 (ACS Pharmacology & Translational Science, 2024)
